The target in the assay is T1, catalytic domain of human Bub1 (amino acids 704-1085) (Homo sapiens, UniProt O43683).
T1 construct: catalytic domain of human Bub1 (amino acids 704-1085); His6 (N); made in house; host or cells: Hi5 insect cells
Briefly: Bub1 kinase assay (TR-FRET). Type of assay: biochemical. The following applies: TR-FRET; ATP 10 μM, peptide substrate 1 μM; 60 min at 22° C.; average or median if tested more than once; read-out: Inhibition of Bub1 kinase IC50. An excerpt: Bub1-inhibitory activities of compounds described in the present invention were quantified using a time-resolved fluorescence energy transfer (TR-FRET) kinase assay which measures phosphorylation of the synthetic peptide Biotin-Ahx-VLLPKKSFAEPG (C-terminus in amide form), purchased from e.g. Biosyntan (Berlin, Germany) by the (recombinant) catalytic domain of human Bub1 (amino acids 704-1085), expressed in Hi5 insect cells with an N-terminal His6-tag and purified by affinity—(Ni-NTA) and size exclusion chromatography.
In a typical assay 11 different concentrations of each compound (0.1 nM, 0.33 nM, 1.1 nM, 3.8 nM, 13 nM, 44 nM, 0.15 μM, 0.51 μM, 1.7 μM, 5.9 μM and 20 μM) were tested in duplicate within the same microtiter plate. To this end, 100-fold concentrated compound solutions (in DMSO) were previously prepared by serial dilution (1:3.4) of 2 mM stocks in a clear low volume 384-well source microtiter plate (Greiner Bio-One, Frickenhausen, Germany), from which 50 nl of compounds were transferred into a black low volume test microtiter plate from the same supplier. Subsequently, 2 μL of Bub1 (the final concentration of Bub1 was adjusted depending on the activity of the enzyme lot in order to be within the linear dynamic range of the assay: typically ˜200 ng/mL were used) in aqueous assay buffer [50 mM Tris/HCl pH 7.5, 10 mM magnesium chloride (MgCl2), 200 mM potassium chloride (KCl), 1.0 mM dithiothreitol (DTT), 0.1 mM sodium ortho-vanadate, 1% (v/v) glycerol, 0.01% (w/v) bovine serum albumine (BSA), 0.005% (v/v) Trition X-100 (Sigma), 1× Complete EDTA-free protease inhibitor mixture (Roche)] were added to the compounds in the test plate and the mixture was incubated for 15 min at 22° C. to allow pre-equilibration of the putative enzyme-inhibitor complexes before the start of the kinase reaction, which was initiated by the addition of 3 μL 1.67-fold concentrated solution (in assay buffer) of adenosine-tri-phosphate (ATP, 10 μM final concentration) and peptide substrate (1 μM final concentration). The resulting mixture (5 μL final volume) was incubated at 22° C. during 60 min., and the reaction was stopped by the addition of 5 μL of an aqueous EDTA-solution (50 mM EDTA, in 100 mM HEPES pH 7.5 and 0.2% (w/v) bovine serum albumin) which also contained the TR-FRET detection reagents (0.2 μM streptavidin-XL665 [Cisbio Bioassays, Codolet, France] and 1 nM anti-phospho-Serine antibody [Merck Millipore, cat. #35-002] and 0.4 nM LANCE EU-W1024 labeled anti-mouse IgG antibody [Perkin-Elmer, product no. AD0077, alternatively a Terbium-cryptate-labeled anti-mouse IgG antibody from Cisbio Bioassays can be used]). The stopped reaction mixture was further incubated 1 h at 22° C. in order to allow the formation of complexes between peptides and detection reagents. Subsequently, the amount of product was evaluated by measurement of the resonance energy transfer from the Eu-chelate-antibody complex recognizing the Phosphoserine residue to the streptavidin-XL665 bound to the biotin moiety of the peptide. To this end, the fluorescence emissions at 620 nm and 665 nm after excitation at 330-350 nm were measured in a TR-FRET plate reader, e.g. a Rubystar or Pherastar (both from BMG Labtechnologies, Offenburg, Germany) or a Viewlux (Perkin-Elmer) and the ratio of the emissions (665 nm/[…]) was taken as indicator for the amount of phosphorylated substrate. The data were normalised using two sets of control wells for high—(=enzyme reaction without inhibitor=0%=Minimum inhibition) and low—(=all assay components without enzyme=100%=Maximum inhibition) Bub1 activity. IC50 values were calculated by fitting the normalized inhibition data to a 4-parameter logistic equation (Minimum, Maximum, IC50, Hill; Y=Max+(Min−Max)/(1+(X/IC50)Hill)).

Molecules are shown by their SMILES.

T1 sequence (O43683 704-1085): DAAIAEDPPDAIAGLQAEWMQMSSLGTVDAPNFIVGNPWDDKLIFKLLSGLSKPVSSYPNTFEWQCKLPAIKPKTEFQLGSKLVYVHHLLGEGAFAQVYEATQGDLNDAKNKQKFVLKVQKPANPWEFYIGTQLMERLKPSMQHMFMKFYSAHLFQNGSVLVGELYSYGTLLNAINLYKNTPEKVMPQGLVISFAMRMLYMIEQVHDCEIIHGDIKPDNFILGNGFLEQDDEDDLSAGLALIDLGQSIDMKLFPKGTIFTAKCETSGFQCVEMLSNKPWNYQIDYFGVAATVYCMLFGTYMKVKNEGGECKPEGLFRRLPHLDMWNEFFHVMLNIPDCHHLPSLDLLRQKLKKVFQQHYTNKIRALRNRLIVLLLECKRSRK

As to `O=C1CNCc2[nH]c(-c3ccnc(NC(=O)[C@@H]4C[C@H]4F)c3)c(Nc3ccccc3)c21` (relative stereo) [Example 142, rel-(1S,2R)—N-[4-(3-Anilino-4-oxo-4,5,6,7-tetrahydro-1H-pyrrolo[2,3-c]pyridin-2-yl)pyridin-2-yl]-2-fluorocyclopropanecarboxamide], the IC50 is 76 nM. For `CC(=O)Nc1cc(-c2[nH]c3c(c2Nc2ccccc2)C(=O)CN(C(=O)c2cocn2)C3)ccn1` [Example 195, N-{4-[3-Anilino-6(1,3-oxazol-4-ylcarbonyl)-4-oxo-4,5,6,7-tetrahydro-1H-pyrrolo[2,3-c]pyridin-2-yl]pyridin-2-yl}acetamide] the value was 24 nM; for `CC(=O)Nc1cc(-c2[nH]c3c(c2Nc2ccccc2)C(=O)CN(C(=O)CCS(C)(=O)=O)C3)ccn1` [Example 210, N-(4-6-[3-(Methylsulfonyl)propanoyl]-4-oxo-3-(phenylamino)-4,5,6,7-tetrahydro-1H-pyrrolo[2,3-c]pyridin-2-ylpyridin-2-yl)acetamide], 3 nM; for `O=C1CN(Cc2ccccc2)Cc2[nH]c(-c3ccncc3)c(Nc3ccccc3)c21` [Example 1, 6-Benzyl-3-(phenylamino)-2-(pyridin-4-yl)-1,5,6,7-tetrahydro-4H-pyrrolo[2,3-c]pyridin-4-one], 67 nM.

Consider `O=C1CSCc2[nH]c(-c3ccncc3)c(Nc3ccccc3)c21` [Example 4, 3-(phenylamino)-2-(pyridin-4-yl)-1,7-dihydrothiopyrano[3,4-b]pyrrol-4(5H)-one], for which the IC50 stood at 19 nM. Consider `O=C(Nc1cc(-c2[nH]c3c(c2Nc2ccccc2)C(=O)COC3)ccn1)c1cncs1` [Example 51, N-{4-[4-Oxo-3-(phenylamino)-1,4,5,7-tetrahydropyrano[3,4-b]pyrrol-2-yl]pyridin-2-yl}-1,3-thiazole-5-carboxamide], for which the half-maximal inhibitory concentration (IC50) is 44 nM.

Turning to `O=C1CNCc2[nH]c(-c3ccnc(NC(=O)[C@H]4C[C@H]4F)c3)c(Nc3ccccc3)c21` [Example 138, (1R,2R)—N-[4-(3-Anilino-4-oxo-4,5,6,7-tetrahydro-1H-pyrrolo[2,3-c]pyridin-2-yl)pyridin-2-yl]-2-fluorocyclopropanecarboxamide], the IC50 is 224 nM. Turning to `CN1CCN(C(=O)N2CC(=O)c3c([nH]c(-c4ccncc4OCC4CC4)c3Nc3ccccc3)C2)CC1` [Example 252, 2-[3-(Cyclopropylmethoxy)pyridin-4-yl]-6-[(4-methylpiperazin-1-yl)carbonyl]-3-(phenylamino)-1,5,6,7-tetrahydro-4H-pyrrolo[2,3-c]pyridin-4-one], the 50% inhibitory concentration (IC50) turned out to be 48 nM. With `COCCOc1cnccc1-c1[nH]c2c(c1Nc1ccccc1)C(=O)CN(S(=O)(=O)N(C)C)C2` [Example 280, 2-[3-(2-Methoxyethoxy)pyridin-4-yl]-N,N-dimethyl-4-oxo-3-(phenylamino)-1,4,5,7-tetrahydro-6H-pyrrolo[2,3-c]pyridine-6-sulfonamide] the figure was 6 nM. Take `COCCOC(=O)N1CC(=O)c2c([nH]c(-c3ccncc3)c2Nc2ccccc2)C1` [Example 80, 2-Methoxyethyl 4-oxo-3-(phenylamino)-2-(pyridin-4-yl)-1,4,5,7-tetrahydro-6H-pyrrolo[2,3-c]pyridine-6-carboxylate]: the concentration for half-maximal inhibition (IC50) worked out at 11 nM. Consider `CC(=O)Nc1cc(-c2[nH]c3c(c2Nc2ccccc2)C(=O)CN(C(C)=O)C3)ccn1` [Example 112, N-{4-[6-Acetyl-4-oxo-3-(phenylamino)-4,5,6,7-tetrahydro-1H-pyrrolo[2,3-c]pyridin-2-yl]pyridin-2-yl}acetamide], for which the IC50 was determined as 9 nM. For `Cn1cnc(C(=O)N2CC(=O)c3c([nH]c(-c4ccncc4)c3Nc3ccccc3)C2)c1` [Example 60, 6-[(1-Methyl-1H-imidazol-4-yl)carbonyl]-3-(phenylamino)-2-(pyridin-4-yl)-1,5,6,7-tetrahydro-4H-pyrrolo[2,3-c]pyridin-4-one] the value was 67 nM.

Turning to `CC(C)S(=O)(=O)N1CC(=O)c2c([nH]c(-c3ccncc3)c2Nc2ccccc2)C1` [Example 67, 3-(phenylamino)-6-(propan-2-ylsulfonyl)-2-(pyridin-4-yl)-1,5,6,7-tetrahydro-4H-pyrrolo[2,3-c]pyridin-4-one], the IC50 was determined as 6 nM.

`COC(=O)N1CC(=O)c2c([nH]c(-c3ccnc(NC(=O)[C@@H]4C[C@@H]4F)c3)c2Nc2ccccc2)C1` [Example 205, Methyl 2-[2-([(1S,2S)-2-fluorocyclopropyl]carbonylamino)pyridin-4-yl]-4-oxo-3-(phenylamino)-1,4,5,7-tetrahydro-6H-pyrrolo[2,3-c]pyridine-6-carboxylate]: the IC50 was determined as 3 nM. For `CC(C)(O)CC(=O)N1CC(=O)c2c([nH]c(-c3ccnc(NC(=O)[C@@H]4C[C@@H]4F)c3)c2Nc2ccccc2)C1` [Example 201] the value was 6 nM. For `CC(C)(F)C(=O)Nc1cc(-c2[nH]c3c(c2Nc2ccccc2)C(=O)CNC3)ccn1` [Example 130, N-[4-(3-Anilino-4-oxo-4,5,6,7-tetrahydro-1H-pyrrolo[2,3-c]pyridin-2-yl)pyridin-2-yl]-2-fluoro-2-methylpropanamide] the value was 662 nM.

Consider `O=C1CNCc2[nH]c(-c3ccncc3OCC(F)F)c(Nc3ccccc3)c21` [Example 224, 3-anilino-2-[3-(2,2-difluoroethoxy)pyridin-4-yl]-1,5,6,7-tetrahydro-4H-pyrrolo[2,3-c]pyridin-4-one], for which the IC50 is 222 nM. On to `COc1ccc(C(=O)Nc2cc(-c3[nH]c4c(c3Nc3ccccc3)C(=O)CN(C(=O)N3C[C@@H](C)O[C@@H](C)C3)C4)ccn2)cc1F` [Example 292, N-4-[6-[(2R,6S)-2,6-Dimethylmorpholin-4-yl]carbonyl-4-oxo-3-(phenylamino)-4,5,6,7-tetrahydro-1H-pyrrolo[2,3-c]pyridin-2-yl]pyridin-2-yl-3-fluoro-4-methoxybenzamide], for which the IC50 amounted to 214 nM. With `Cc1ccc(F)cc1C(=O)Nc1cc(-c2[nH]c3c(c2Nc2ccccc2)C(=O)CN(C(=O)OC(C)(C)C)C3)ccn1` [Example 268, tert-Butyl 2-2-[(5-fluoro-2-methylbenzoyl)amino]pyridin-4-yl-4-oxo-3-(phenylamino)-1,4,5,7-tetrahydro-6H-pyrrolo[2,3-c]pyridine-6-carboxylate] the figure was 58 nM; with `CC(=O)Nc1cc(-c2[nH]c3c(c2Nc2ccccc2)C(=O)CN(C(=O)N2CCN(C)CC2)C3)ccn1` [Example 127, N-(4-{3-Anilino-6-[(4-methylpiperazin-1-yl)carbonyl]-4-oxo-4,5,6,7-tetrahydro-1H-pyrrolo[2,3-c]pyridin-2-yl}pyridin-2-yl)acetamide], 29 nM. For `COc1ccc(C(=O)Nc2cc(-c3[nH]c4c(c3Nc3ccccc3)C(=O)CN(C(C)=O)C4)ccn2)cc1F` [Example 285, N-4-[6-Acetyl-4-oxo-3-(phenylamino)-4,5,6,7-tetrahydro-1H-pyrrolo[2,3-c]pyridin-2-yl]pyridin-2-yl-3-fluoro-4-methoxybenzamide] the value was 6 nM; for `CCNC(=O)N1CC(=O)c2c([nH]c(-c3ccncc3)c2Nc2ccccc2)C1` [Example 10, N-Ethyl-4-oxo-3-(phenylamino)-2-(pyridin-4-yl)-1,4,5,7-tetrahydro-6H-pyrrolo[2,3-c]pyridine-6-carboxamide], 6 nM.

(Values after patent US20200216439A1, “HETERO-1,5,6,7-TETRAHYDRO-4H-INDOL-4-ONES” (BAYER PHARMA AKTIENGESELLSCHAFT, priority 2015, published 2020).)
